Measured values as given in patent US20250268898A1, “METHODS OF TREATING SYNOVIAL SARCOMA PATHOGENESIS BY SUMO2 INHIBITION” (Sanford Burnham Prebys Medical Discovery Institute, priority 2024, published 2025).
“Also recorded” adds a separate entry of the source.

Experiments:
Aska-SS cells = assay: CellTiter-Glo viability, 2D and 3D cultures; type: cell-based; conditions: over 2, 3, and 4 days
Method: (§1) To investigate whether the reduction of proliferation by Compound 1 was due to apoptosis and necrosis in synovial sarcoma cell lines, flow cytometric analyses were performed with cells treated with Compound 1 and untreated cells stained with Annexin V-FITC apoptosis marker, as well as Propidium Iodide necrosis marker for cells in media containing Compound 1 and media only containing DMSO. The proliferation assay was performed using Cell Titer Glo Luminescent Cell Viability Assay (Promega). Cell numbers were optimized for 384-well plate for each cell line. SUMO2 inhibitors including Compound 1 were dissolved in DMSO and echo dotted onto a 384-well plate in varying concentrations, with the final concentration of DMSO at about 0.08% in each well. About 25 μL of cell suspension, a concentration of about 50,000 cells/mL were seeded in each well of a 384-well plate. […] Luminescence was recorded with a plate reader (BMG FLUOStar). The EC50 values were calculated by Graphpad Prism software. Apoptosis was quantified by flow cytometry using Annexin V-FITC kit from BD Biosciences. […] The samples were then analyzed by flow cytometry using Fortessa along with FlowJo analysis software. Cell lines analyzed were HS-SY-II (left) and SYO1 (right) (FIG. 3G). […]

Aska-SS flank tumors = assay: Flank tumor xenograft in nude mice; type: in vivo
Method: (§2) To determine the antitumor activity of Compound 1 in vivo, either Aska-SS cells (harboring the SS18-SSX1 fusion) or SYO1 cells (harboring the SS18-SSX2 fusion) were injected into the flanks of nude mice. When tumors became palpable, mice were treated with 25 mg/kg of Compound 1 or vehicle.
(§3) Flank tumors were harvested, sectioned, and stained with hematoxylin and eosin and analyzed with IHC for tumoricidal markers.

SYO1 flank tumors = assay: Flank tumor xenograft in nude mice; type: in vivo
Method: as §2, §3

[1] = target: T1, Sumo-Activating Enzyme 1 (SAE1) or Sumo-Activating Enzyme 2 (SAE2) (Homo sapiens, UniProt Q9UBE0+Q9UBT2); assay: Interruption of the SUMO cycle (SAE inhibition); conditions: E1 Ligase Activation step
T1 sequence (Q9UBE0 1-346): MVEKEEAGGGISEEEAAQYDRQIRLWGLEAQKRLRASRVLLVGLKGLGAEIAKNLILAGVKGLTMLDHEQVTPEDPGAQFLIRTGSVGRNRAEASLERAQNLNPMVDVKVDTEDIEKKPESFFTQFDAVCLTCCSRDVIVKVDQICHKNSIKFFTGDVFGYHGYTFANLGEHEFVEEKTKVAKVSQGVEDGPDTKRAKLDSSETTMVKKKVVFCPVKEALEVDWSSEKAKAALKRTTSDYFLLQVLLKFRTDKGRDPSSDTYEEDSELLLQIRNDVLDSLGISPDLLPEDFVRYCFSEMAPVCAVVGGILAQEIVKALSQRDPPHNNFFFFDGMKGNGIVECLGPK
T1 sequence (Q9UBT2 1-640): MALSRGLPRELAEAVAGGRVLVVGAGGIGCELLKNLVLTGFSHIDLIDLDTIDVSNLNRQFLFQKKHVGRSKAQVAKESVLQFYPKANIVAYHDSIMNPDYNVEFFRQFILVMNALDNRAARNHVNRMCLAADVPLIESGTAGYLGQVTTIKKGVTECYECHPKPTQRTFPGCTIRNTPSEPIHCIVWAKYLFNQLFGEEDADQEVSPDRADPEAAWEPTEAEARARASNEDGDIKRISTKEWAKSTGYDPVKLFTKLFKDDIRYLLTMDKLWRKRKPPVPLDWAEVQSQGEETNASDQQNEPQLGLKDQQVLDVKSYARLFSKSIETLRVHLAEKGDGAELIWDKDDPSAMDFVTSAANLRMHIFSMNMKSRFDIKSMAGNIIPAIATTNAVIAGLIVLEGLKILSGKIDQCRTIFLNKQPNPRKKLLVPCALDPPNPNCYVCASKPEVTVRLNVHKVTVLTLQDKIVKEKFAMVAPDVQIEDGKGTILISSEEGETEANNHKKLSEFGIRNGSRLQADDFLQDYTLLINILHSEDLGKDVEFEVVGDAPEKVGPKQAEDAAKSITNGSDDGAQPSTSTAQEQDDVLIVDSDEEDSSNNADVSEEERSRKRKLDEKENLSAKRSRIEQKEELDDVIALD

H2AK119ub [2] = assay: ChIP-sequencing of H2AK119ub; type: cell-based, human
12273/99 cells = assay: Colony-forming assay (crystal violet); type: cell-based, human; conditions: Compound 1 titration series
SYO1 cells [3] = assay: Colony-forming assay (crystal violet); type: cell-based, human; conditions: Compound 1 titration series
Method: Further testing of Compound 1 was performed on 2D and 3D cultures for SYO1 and Aska-SS cell lines to determine whether these culture conditions resist Compound 1 treatment.

HS-SY-II cells = assay: Colony-forming assay (crystal violet); type: cell-based, human; conditions: Compound 1 titration series
HS-SY-II and SYO1 cells = assay: Total RNA sequencing, Compound 1 vs DMSO; type: cell-based, human
Method: To comprehensively interrogate the transcriptomic changes occurring in synovial sarcoma cells, HS-SY-II and SYO1 cells were cultured in media containing DMSO and media containing Compound 1 and subjected to total RNA sequencing. HS-SY-II and SYO1 cells were contacted with either Compound 1 at concentrations of between about 25 nM and about 100 nM, or DMSO for 48 hours. The cell suspensions were pelleted, and RNA was extracted with varying concentrations. TRIzol Reagent was used to extract total RNA from SYO1, and HS-SY-II cell pellets, and strands were synthesized using Protoscript II (NEB) with poly A selection. qPCR was performed using TaqMan Gene Expression Master Mix and FAM probes for SUMO2, HPRT, and GAPDH. Paired-end (2×100 bp) sequencing was performed on the NovaSeq 6000 Sequencing System. Data Processing and QC was completed using FastQC and QC summarization was done by MultiQC. Mapping to human genome hg38 v84 was done using STAR sequence aligner, and expression was estimated using RSEM. DESeq2 was used for differential expression analysis, and IPA algorithm was used in evaluation of upstream pathway regulators.
The RNA-seq reads were analyzed for each sample to the human reference genome GRCh38 using STAR aligner. Expression estimation was conducted using RSEM followed by differential expression calling using DESeq2. For target genes of interest in both HS-SY-II and SYO1, a total of 960 differentially expressed target genes of interest (DEGs) were analyzed using […] (FIG. 4A).
Upregulation of target genes of interest activated by the chimeric SS18-SSX fusion protein in DMSO media and in media containing Compound 1 were mapped with size and […] (FDR) quantified, based on […] (NES) values (FIG. 4D). Expression of various target genes of interest, upregulation, and downregulation by SS18-SSX fusion genomes, were measured in contact with varying concentrations of Compound 1 (FIG. 4E). Heat maps were created mapping the various target genes of interest cultured in media containing only DMSO, compared to media containing Compound 1, for multiple samples (FIG. 4F-4G). Enrichment scores were calculated using gene set enrichment analysis for HS-SY-II cells in contact with DMSO and varying concentrations of Compound 1 for target genes of interest (FIG. 4H). Additional experiments comparing gene expression differences due to DMSO or Compound 1 on SYO-II and HS-SY-II cells were performed. Not only were SS18-SSX-regulated genes affected by Compound 1 treatment, but other genes also impacted included the HOX genes: HOXC6, HOXA10 as well as SRSF1 and TYMS. (FIG. 4I).

SS18-SSX fusion = assay: Spike-in normalized CUT&RUN of SS18-SSX chromatin occupancy; type: cell-based, human
Method: Subsequent studies sought to determine the mechanism behind Compound 1 treatment and the observed attenuation of SS18-SSX expression activity. Initial studies utilizing Cleavage Under Targets & Release Using Nuclease (CUT&RUN) focused on determining whether Compound 1 affects the chromatin occupancy of the SS18-SSX fusion protein. […] Since increased H2AK119ub deposition has been linked to the pathogenic activity of the SS18-SSX fusions, H2AK119 ubiquitination was assessed in Compound 1-treated cells.

SYO1 cells [4] = assay: CellTiter-Glo viability, 2D and 3D cultures; type: cell-based, human; conditions: over 2, 3, and 4 days
Method: as §1

SS18-SSX1 protein = assay: Western blot for SS18-SSX fusion protein levels; type: cell-based, human
Method: shRNAs targeting SUMO2 were cloned into a tetracycline-inducible plasmid and expressed in HS-SYII cells. Small hairpin RNAs (shRNAs) for SUMO2 were cloned into the all-in-one-Tet vector and packaged into lentivirus using pMD and pPax2. A cell suspension containing about 300,000 HS-SY-II and SYO1 cells were seeded into six-well culture plates overnight for about 12-14 hours. Transfections were performed with Lipofectamine 2000 reagent. At about 48 hours after transfection, media was changed and puromycin selected for about 2 days. After selection, cells were subjected to a previously determined amount of doxycycline, about 4.5 μg/ml, for about 48 hours. Cells were harvested for qPCR quantification and western blot analysis.
The effect of Compound 1 was compared to the effect of SUMO2 knockdown by shRNA.

H2AK119ub [5] = assay: H2AK119ub immunoblotting; type: cell-based, human
[6] = 25 mg/kg, 3 intraperitoneal injections a week for 5 weeks, vs vehicle
[7] = Ki-67 staining of tumor sections, vs vehicle-treated tumors
[8] = harvested flank tumors, vs vehicle-treated tumors

SS18-SSX2 fusion genomic occupancy (SS18-SSX fusion; Compound 1-treated compared to vehicle-treated arms): substantial decrease
fusion-binding signal at synovial sarcoma target genes (meta-analysis) (SS18-SSX fusion; maximum signal centered around the transcription start site): reduction in the fusion binding
SMILES: Cc1sc(C(=O)c2cncnc2N[C@@H]2C[C@H](COS(N)(=O)=O)[C@@H](O)C2)cc1[C@@H]1NCCc2ccc(Cl)cc21 [Compound 1]
viability as measured by CellTiter-Glo (Aska-SS cells): progressive and marked decrease in viability; also recorded: affected in a Compound 1 concentration-dependent manner
tumor growth (Aska-SS flank tumors; [6]): reduction of tumor growth
tumor volumes (Aska-SS flank tumors; [6]): significantly reduced
tumor weights (Aska-SS flank tumors; [6]): significantly reduced
decrease in Ki67 positivity (Aska-SS flank tumors; [7]): ~60%
number of cells per unit area (tumor cellularity, hematoxylin and eosin) (Aska-SS flank tumors; [8]): marked reduction
tumor growth (SYO1 flank tumors; [6]): reduction of tumor growth
tumor volumes (SYO1 flank tumors; [6]): significantly reduced
tumor weights (SYO1 flank tumors; [6]): significantly reduced
decrease in Ki67 positivity (SYO1 flank tumors; [7]): ~60%
number of cells per unit area (tumor cellularity, hematoxylin and eosin) (SYO1 flank tumors; [8]): marked reduction
interruption of the SUMO cycle [1]: interrupt the SUMO cycle at the E1 Ligase Activation step
H2AK119ub at GADD45B (H2AK119ub [2]): reduced H2AK119ub
reduction of genome-wide H2AK119ub levels (FRiP) (H2AK119ub [2]; SYO1 cells, versus DMSO-treated): 1.53 fold
H2AK119ub genome-wide (H2AK119ub [2]; compared to DMSO-treated cells): substantial reduction
colony formation (12273/99 cells): dramatic and dose-dependent reduction in colony formation
colony formation (SYO1 cells [3]): dramatic and dose-dependent reduction in colony formation
colony formation (HS-SY-II cells): dramatic and dose-dependent reduction in colony formation
expression of GADD45B (HS-SY-II and SYO1 cells): increased expression (de-repression); also recorded: increase in its expression
expression of HOXA10 and SOX8 (HS-SY-II and SYO1 cells): reduced expression
expression of key cancer-associated genes upregulated by the SySa fusion (CDX2, HOXA10, SUZ12, TYMS, AURKB, HOXC10, SMC2) (HS-SY-II and SYO1 cells; HS-SY-II and SYO1, vs DMSO): downregulated
expression of HOXC6, HOXA10, SRSF1 and TYMS (HS-SY-II and SYO1 cells; SYO1 and HS-SY-II cells, vs DMSO): impacted
expression of SS18-SSX-regulated genes (HS-SY-II and SYO1 cells; SYO-II and HS-SY-II cells, vs DMSO): affected
SS18-SSX fusion occupancy at SS18-SSX-repressed target GADD45B (SS18-SSX fusion): diminished SS18-SSX fusion occupancy; also recorded: decrease of SS18-SSX occupation of this gene
SS18-SSX occupancy at SS18-SSX-activated targets HOXA10 and SOX8 (SS18-SSX fusion): lost SS18-SSX occupancy; also recorded: decrease of SS18-SSX occupation
reduction in genome-wide chromatin binding signal of the SS18-SSX fusion (FRiP) (SS18-SSX fusion; SYO1 cells, compared to DMSO treated cells): 1.87 fold
viability as measured by CellTiter-Glo (SYO1 cells [4]): progressive and marked decrease in viability; also recorded: affected in a Compound 1 concentration-dependent manner
levels of SS18-SSX1 protein (SS18-SSX1 protein; HS-SY-II cell line): reduction in the levels
levels of SS18-SSX1 fusion (SS18-SSX1 protein; SYO1 cell lines): reduction in the levels
H2AK119ub by immunoblotting (H2AK119ub [5]; 1273/99 cell line): marked reduction
H2AK119ub by immunoblotting (H2AK119ub [5]; Aska cell line): marked reduction
H2AK119ub by immunoblotting (H2AK119ub [5]; HS-SY-II cell line): marked reduction
H2AK119ub by immunoblotting (H2AK119ub [5]; SYO1 cell line): marked reduction
